A value given as a limit tells only on which side of the number the result lay.

Sequence of human IDO1 (P14902 whole entry): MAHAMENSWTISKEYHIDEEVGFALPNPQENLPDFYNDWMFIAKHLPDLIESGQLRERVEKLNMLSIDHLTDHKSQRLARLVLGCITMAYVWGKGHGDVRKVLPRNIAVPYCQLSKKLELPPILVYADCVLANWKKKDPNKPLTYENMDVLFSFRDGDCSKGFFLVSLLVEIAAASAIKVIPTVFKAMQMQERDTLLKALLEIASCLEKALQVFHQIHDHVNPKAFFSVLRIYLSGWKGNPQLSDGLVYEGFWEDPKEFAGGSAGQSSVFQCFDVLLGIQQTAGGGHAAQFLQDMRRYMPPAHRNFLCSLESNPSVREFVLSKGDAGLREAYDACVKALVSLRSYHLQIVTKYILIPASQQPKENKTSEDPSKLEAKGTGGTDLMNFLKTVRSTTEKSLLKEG

The target in this assay is human IDO1 (Homo sapiens, UniProt P14902). As to the kind of experiment: Assessment of human IDO-1 inhibitory activity in Hela cells (Interferon-gamma stimulated HeLa cells, Ehrlich reagent, absorbance 490 nm). The assay is classed as cell-based. Further details: endogenous in cells; host or cells: HeLa cells stimulated with interferon-gamma. The settings on record: Hela Human IDO-1 cellular assay. Put shortly:
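IDO activity induced by 18 h IFN-γ (human 10 ng/ml or murine 5 ng/ml, final) after 1 h compound pre-treatment of HeLa cells at 37 °C. Supernatant kynurenine detected via Ehrlich reagent absorbance at 490 nm following 3% TCA at 50 °C; IC50 set against no-IFN-γ and untreated-stimulated controls.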
With `CCCN(c1ccc([C@H](CC)CC(=O)O)cc1Nc1ccc(Cl)cc1)C1CCOCC1` (single isomer, unassigned) [Example 552], the IC50 is under 5 nM. `CC[C@H](CC(=O)O)c1ccc(N(CC)C2CCOCC2)c(Nc2ccc(Cl)cn2)c1` (single isomer, unassigned) [Example 503] showed an IC50 of under 5 nM. `COCC(CC(=O)O)c1ccc(N2C[C@@H]3C[C@H]2CN3C(=O)OC(C)(C)C)c(Nc2ccc(C#N)cc2)c1` (single isomer, unassigned) [Example 451 Diastereomer 1] displayed an IC50 of under 50 nM. The compound `CCN(c1ccc([C@@H](CC(=O)O)C(F)(F)F)cc1NC(=O)Nc1ccc(C)cc1)C1CCOCC1` (single isomer, unassigned) [Example 1272] yielded an IC50 of under 50 nM. Next, `CCC(CC(=O)O)c1ccc(N(CC)C2CCCOC2)c(Nc2cnc(OC)nc2)c1` (single isomer, unassigned) [Example 65, 3-(4-(ethyl(tetrahydro-2H-pyran-3-yl)amino)-3-((2-methoxypyrimidin-5-yl)amino)phenyl)pentanoic acid]: under 5 nM; `CCOc1ccc(Nc2cc([C@@H](CC)CC(=O)O)ccc2N(CC)C2CCOCC2)nn1` (single isomer, unassigned) [Example 467]: under 50 nM. The figure for `CCN(c1ccc([C@@H](COC)CC(=O)O)cc1Nc1ccc(F)cc1F)C1CCOCC1` (single isomer, unassigned) [Example 365] is under 50 nM.

Compound `CCCN(c1ccc(C(C)(C)CC(=O)O)cc1Nc1cnc(OC)nc1)C1CCS(=O)(=O)CC1` [Example 189, 3-(4-((1,1-dioxidotetrahydro-2H-thiopyran-4-yl)(propyl)amino)-3-((2-methoxypyrimidin-5-yl)amino)phenyl)-3-methylbutanoic acid] returned an IC50 of over 50 nM. In the case of `CCCN(c1ccc([C@H](CC)CC(=O)O)cc1Nc1ccc(C#N)cc1)C1CCOCC1` (single isomer, unassigned) [Example 547], the IC50 was under 5 nM. Next, `CCOc1ncc(Nc2cc([C@H](COC)CC(=O)O)ccc2N2CCOCC2CC)cn1` (single isomer, unassigned) [Example 1291]: over 50 nM; `CCOc1ncc(Nc2cc(C(COC)CC(=O)O)ccc2N(CC)C2CCS(=O)(=O)CC2)cn1` (single isomer, unassigned) [Example 171, 3-(4-((1,1-dioxidotetrahydro-2H-thiopyran-4-yl)(ethyl)amino)-3-((2-ethoxypyrimidin-5-yl)amino)phenyl)-4-methoxybutanoic acid]: over 50 nM; `CCOc1ccc(Nc2cc(C(COC)CC(=O)O)cc(F)c2N(CC(C)C)CC(C)C)cc1` (single isomer, unassigned) [Example 923, 3-(4-(diisobutylamino)-3-((4-ethoxyphenyl)amino)-5-fluorophenyl)-4-methoxybutanoic acid]: under 50 nM.

In turn, `CCN(c1ccc([C@H](COC)CC(=O)O)cc1NC(=O)Nc1ccc(Cl)cc1Cl)C1CCOCC1` (single isomer, unassigned) [Example 441] gave an IC50 of over 50 nM. Compound `CCCN(c1ccc([C@H](CC)CC(=O)O)cc1Nc1ccc(OC)nc1)C1CCOCC1` (single isomer, unassigned) [Example 553] yielded an IC50 of under 5 nM. Next, `CCC(CC(=O)O)c1ccc(N2CCOCC2)c(NC(=O)Nc2ccc(C)cc2)c1` (single isomer, unassigned) [Example 8 Enantiomer 2, 3-(4-Morpholino-3-(3-(p-tolyl)ureido)phenyl)pentanoic acid]: under 50 nM; `CCC(CC(=O)O)c1ccc(N(C)C2CCOCC2)c(Nc2ccc(C#N)cc2)c1` (single isomer, unassigned) [Example 866, 3-(3-((4-Cyanophenyl)amino)-4-(methyl(tetrahydro-2H-pyran-4-yl)amino)phenyl)pentanoic acid]: under 50 nM; `COCC(CC(=O)O)c1ccc(N2CCOC[C@@H]2C(C)C)c(Nc2ccc(C#N)cc2)c1` (single isomer, unassigned) [Example 929]: under 50 nM.

Consider “(R)-3-(4-((1,1-dioxidotetrahydro-2H-thiopyran-4-yl)(ethyl)amino)- 3-((2-methoxypyrimidin-5- yl)amino)phenyl)-4- isopropoxybutanoic acid [Example 332]”, for which the IC50 was over 50 nM. Next, `CCOc1ncc(Nc2cc(C3(CC(=O)O)CCOCC3)ccc2N(CC)C2CCOCC2)cn1` [Example 153, 2-(4-(3-((2-Ethoxypyrimidin-5-yl)amino)-4-(ethyl(tetrahydro-2H-pyran-4-yl)amino)phenyl)tetrahydro-2H-pyran-4-yl)acetic acid]: over 50 nM.

Compound `CCC(CC(=O)O)c1ccc(N2CCN(C(=O)OC(C)(C)C)CC2)c(Nc2ccc(C#N)cc2)c1` (single isomer, unassigned) [Example 674 Enantiomer 2, 3-(4-(4-(tert-Butoxycarbonyl)piperazin-1-yl)-3-((4-cyanophenyl)amino)phenyl)pentanoic acid] returned an IC50 of over 50 nM. Regarding `Cc1ccc(NC(=O)Nc2cc(C(C)CC(=O)O)ccc2N2C[C@@H](C)O[C@@H](C)C2)cc1` (single isomer, unassigned) [Example 751], the IC50 is over 50 nM. In the case of `CCN(c1ccc(C(C)CC(=O)O)cc1Nc1cnc(OC)nc1)C1CCOCC1` (single isomer, unassigned) [Example 620, 3-(4-(ethyl(tetrahydro-2H-pyran-4-yl)amino)-3-((2-methoxypyrimidin-5-yl)amino)phenyl)butanoic acid], the IC50 is under 50 nM. Take `COCCN(c1ccc(C(COC)CC(=O)O)cc1NC(=O)Nc1ccc(C)cc1)C1CCOCC1` (single isomer, unassigned) [Example 261 Enantiomer 1, 4-Methoxy-3-(4-((2-methoxyethyl)(tetrahydro-2H-pyran-4-yl)amino)-3-(3-(p-tolyl)ureido)phenyl)butanoic acid]: the IC50 was over 50 nM. The figure for `CCN(c1cc(F)c(C(COC)CC(=O)O)cc1Nc1ccc(C#N)c(F)c1)C1CCOCC1` (single isomer, unassigned) [Example 846, 3-(5-((4-cyano-3-fluorophenyl)amino)-4-(ethyl (tetrahydro-2H-pyran-4-yl)amino)-2-fluorophenyl)-4-methoxybutanoic acid] is under 5 nM; for `COCC(CC(=O)O)c1ccc(N2CCC(c3ccccc3)CC2)c(Nc2ccc(C#N)cc2)c1` (single isomer, unassigned) [Example 1350 E1, 3-(3-((4-Cyanophenyl)amino)-4-(4-phenylpiperidin-1-yl)phenyl)-4-methoxybutanoic acid] it is under 5 nM; for `CCOc1ncc(Nc2cc([C@H](CC)CC(C)(C)O)ccc2N(CC)C2CCOCC2)cn1` (single isomer, unassigned) [Example 1368] it is over 50 nM. Compound `CCN(c1ccc([C@H](COC)CC(=O)O)cc1NC(=O)Nc1ccc(F)cc1F)C1CCOCC1` (single isomer, unassigned) [Example 442] yielded an IC50 of over 50 nM.

As to `CCCN(c1ccc(C(C)(C)CC(=O)O)cc1NC(=O)Nc1ccc(C#N)cc1)C1CCS(=O)(=O)CC1` [Example 190, 3-(3-(3-(4-Cyanophenyl)ureido)-4-((1,1-dioxidotetrahydro-2H-thiopyran-4-yl)(propyl)amino)phenyl)-3-methylbutanoic acid], the IC50 is over 50 nM. `CCN(c1ccc([C@H](COC(C)C)CC(=O)O)cc1Nc1ccc(C#N)cc1)C1CCOCC1` (single isomer, unassigned) [Example 329] yielded an IC50 of under 50 nM.

`CCOc1ncc(Nc2cc([C@@H](CC)CC(=O)O)ccc2N2C3CCC2CC(c2ccc(F)cc2)C3)cn1` (stereo partly drawn) [Example 1360, (S)-3-(3-((2-Ethoxypyrimidin-5-yl)amino)-4-(3-(4-fluorophenyl)-8-azabicyclo[3.2.1]octan-8-yl)phenyl)pentanoic acid] displayed an IC50 of under 5 nM. Compound `COCC(CC(=O)O)c1cc(F)c(N(CC(C)C)CC(C)C)c(Nc2ccc(Cl)cc2)c1` (single isomer, unassigned) [Example 920, 3-(3-((4-Chlorophenyl)amino)-4-(diisobutylamino)-5-fluorophenyl)-4-methoxybutanoic acid] had an IC50 of under 5 nM. `CCN(c1ccc(C(C)(C)CC(=O)O)cc1Nc1ccc(Cl)cc1)C1CCS(=O)(=O)CC1` [Example 180, 3-(3-((4-chlorophenyl)amino)-4-((1,1-dioxidotetrahydro-2H-thiopyran-4-yl)(ethyl)amino)phenyl)-3-methylbutanoic acid]: the IC50 was under 5 nM.

In turn, `COCC(CC(=O)O)c1ccc(N(C)C2CCOCC2)c(Nc2ccc(Cl)cc2)c1` (single isomer, unassigned) [Example 877, 3-(3-((4-chlorophenyl)amino)-4-(methyl(tetrahydro-2H-pyran-4-yl)amino)phenyl)-4-methoxybutanoic acid] returned a 50% inhibitory concentration (IC50) of over 50 nM. On to `CCOc1ncc(Nc2cc(C(CC)CC(C)(C)O)ccc2N2CCC(c3ccccc3)CC2)cn1` (single isomer, unassigned) [Example 1349, 4-(3-((2-Ethoxypyrimidin-5-yl)amino)-4-(4-phenylpiperidin-1-yl)phenyl)-2-methylhexan-2-ol], for which the IC50 is over 50 nM. The figure for `CCC(CC(=O)O)c1ccc(N2CCOC[C@H]2C(C)C)c(Nc2ccc(C#N)cc2)c1` (single isomer, unassigned) [Example 887] is under 5 nM; for `CCC(CC(=O)O)c1ccc(N(C)C2CCOCC2)c(Nc2ccc(Cl)cc2)c1` (single isomer, unassigned) [Example 867, 3-(3-((4-Chlorophenyl)amino)-4-(methyl(tetrahydro-2H-pyran-4-yl)amino)phenyl)pentanoic acid] it is under 5 nM.

As to `CCc1ncc(Nc2cc([C@H](CC)CC(=O)O)ccc2N(CC)C2CCOCC2)cn1` (single isomer, unassigned) [Example 1364], the IC50 was under 5 nM.

Values taken from US9790169B2, “IDO inhibitors” (BRISTOL-MYERS SQUIBB COMPANY, priority 2015, dated 2017).
